Source: US20040063742A1 (priority 2001, published 2004)

Experiments:
[1] = target: T1, dopamine transporter (Rattus norvegicus, UniProt P23977); assay: Inhibition of in vitro [3H]WIN 35428 binding to the dopamine transporter in rat striatal synaptosomes; conditions: [3H]WIN 35428 1 nM
T1 construct: Striata from male Wistar rats (150-200 g) are homogenized; from tissue; host or cells: rat striatum (male Wistar), membrane pellet
Description: Inhibition of In Vitro [^3H]WIN 35428 Binding to the Dopamine Transporter in Rat Striatal Synaptosomes
In this method the ability of test compounds to inhibit the binding of WIN 35428 to the dopamine transporter in vitro is assessed.
Tissue preparation: Striata from male Wistar rats (150-200 g) are homogenized for 5-10 sec in 10 ml NaH2PO4 (50 mM, pH 7.4) using an Ultra-Turrax homogenizer. The suspension is centrifuged at 27,000×g for 15 min. The supernatant is discarded and the pellet is resuspended in phosphate buffer (1000 ml per g of original tissue) and used for binding assays.
Binding assays: Aliquots of 0.5 ml tissue suspension are added to 0.025 ml of test solution and 0.025 ml of [^3H]WIN 35428 (1 nM, final concentration), mixed and incubated for 60 min at 2° C. Non-specific binding is determined using cocaine (30 μM, final concentration).
After incubation 5 ml of ice-cold buffer is added to the samples and poured directly onto Whatman GF/C glass fiber filters (for the [^3H]GBR 12935 assay the filters are presoaked in 0.1% PEI for at least 20 min) under suction and immediately washed with 5 ml ice-cold buffer. The amount of radioactivity on the filters is determined by conventional liquid scintillation counting using a Tri-carb liquid scintillation analyzer (model 1600CA; Packard, USA). […]

[2] = target: T2, 3H-dopamine uptake in striatal synaptosomes (Rattus norvegicus, UniProt P23977); assay: In vitro inhibition of 3H-dopamine (3H-DA) uptake in striatal synaptosomes; format: biochemical
T2 construct: Corpi striati from male Wistar rats (150-200 g) are homogenised; from tissue; host or cells: rat corpus striatum (male Wistar), P2 synaptosomal pellet
T2 sequence (P23977 whole entry): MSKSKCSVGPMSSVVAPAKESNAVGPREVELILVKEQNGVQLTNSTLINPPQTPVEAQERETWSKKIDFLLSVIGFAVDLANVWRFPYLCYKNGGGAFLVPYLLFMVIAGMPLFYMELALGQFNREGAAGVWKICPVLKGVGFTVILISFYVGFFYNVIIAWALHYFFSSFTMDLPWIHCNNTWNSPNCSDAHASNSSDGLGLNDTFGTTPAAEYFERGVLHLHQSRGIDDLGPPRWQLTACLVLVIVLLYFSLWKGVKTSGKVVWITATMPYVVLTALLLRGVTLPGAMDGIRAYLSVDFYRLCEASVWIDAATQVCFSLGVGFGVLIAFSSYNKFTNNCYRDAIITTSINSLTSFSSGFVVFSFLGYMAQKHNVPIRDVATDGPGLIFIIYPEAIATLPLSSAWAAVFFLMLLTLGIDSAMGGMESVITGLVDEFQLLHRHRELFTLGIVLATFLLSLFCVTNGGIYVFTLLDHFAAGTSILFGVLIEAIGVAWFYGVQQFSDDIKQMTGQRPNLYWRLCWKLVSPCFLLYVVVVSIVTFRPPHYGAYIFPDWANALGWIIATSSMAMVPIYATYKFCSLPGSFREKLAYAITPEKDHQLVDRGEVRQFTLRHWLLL
Description: In vitro Inhibiti n of ^3H-dopamin (3H-DA) Uptake in Striatal Synaptosom s
In this test, the ability of a compound enhancing the dopamine activity (below: the test compound) to inhibit the uptake of ^3H-dopamine in striatal synaptosomes is assessed.
Tissue preparations: Preparations are performed at 0-4° C. unless otherwise indicated. Corpi striati from male Wistar rats (150-200 g) are homogenised for 5-10 sec in 100 volumes of ice-cold 0.32M sucrose containing 1 mM pargyline using an Ultra-Turrax homogenizer. Monoamine oxidase activity will be inhibited in the presence of pargyline. The homogenate is centrifuged at 1000×g for 10 min. The resulting supernatant is then centrifuged at 27,000×g for 50 min and the supernatant is discarded. […]
Assay: Aliquots of 4.0 ml tissue suspension are added to 100 μl of test solution and 100 μl of ^3H-DA (1 nM, final concentration), mixed and incubated for 25 min at 37° C. Non-specific uptake is determined using benztropine (10 μM, final concentration). […] The amount of radioactivity on the filters is determined by conventional liquid scintillation counting. Specific uptake is calculated as the difference between total uptake and non-specific uptake. […]

[3] = system: dopaminergic neurons in dissociated cultures from rat E14 ventral mesencephali; assay: Survival of embryonic rat dopaminergic neurons; format: cell-based; conditions: TH-immunoreactive cells, 7 days in culture
Description: Survival of Embryonic Rat Dopaminergic Neurons
In this experiment the effect of a test compound on the survival of dopaminergic neurons in dissociated cultures established from rat E14 ventral mesencephali (VM) is assessed.
Embryonic rat brains (Wistar; E14) were isolated under sterile conditions placed in chilled Gey's balanced salt solution (GIBCO) with glucose (6.5 mg/ml).
The ventral mesencephali were dissected out, cut into small tissue pieces, placed in Neurobasal medium with B27 supplement and gently pressed through a 80 μm Nitex filter. The cells were counted using a hemocytometer and plated in a 6 well multi-dish at a density of approximately 2.0×10^6 cells/well. Culture dishes were pre-coated with poly-D-lysine.
After 1 hour, the medium was removed and fresh medium added (1.5 ml/well). […] Untreated cultures served as controls. The medium was changed every other day and antimitotics and antibiotics were not used at any stage.
After 7 days in culture, cultures were then immunostained for tyrosine hydroxylase (TH). Briefly, the cells were washed in 0.05M tris-buffered saline (TBS, pH 7.4) containing 1% Triton X-100 for 3×15 minutes and incubated with 10% foetal bovine serum (FBS, Life Technologies) in TBS for 30 minutes. The cells were then incubated for 24 hours at 4° C. with monoclonal mouse anti-TH antibody (Boehringer Mannheim) diluted 1:600 in TBS with 10% FBS. After rinsing in TBS with 1% Triton X-100 for 3×15 minutes, cells were incubated for 60 minutes with biotinylated anti-mouse IgG antibody (Amersham) diluted 1:200 in TBS with 10% FBS. The cells were then washed in TBS with 1% Triton X-100 (3×15 minutes) and incubated for 60 minutes with streptavidine-peroxidase (Dako) diluted 1:200 in TBS with 10% FBS. After washing in TBS (3×15 minutes), bound antibody was visualised by treatment with 0.05% 3,3-diaminobenzidine (Sigma) in TBS containing 0.01% H2O2. TH-immunoreactive (ir) cells were counted manually.

T1 sequence (P23977 whole entry): as above

SMILES: O=C1Nc2c(cc(-c3ccc(Cl)cc3)c3c2CCCC3)C1=NO [compound a, 5-(4-Chlorophenyl)-6,7,8,9-tetrahydro-1-H-pyrrolo[3.2-h]naphthalene-2,3-dione-3-oxime]
- IC50 [1]: 0.14 µM
- IC50 [2]: 0.034 µM
- Inhibition of cell loss ([3]; 0.3 μM compound a): 74%
- Inhibition of cell loss ([3]; 1.0 μM compound a): 62%
- Inhibition of cell loss ([3]; 3.0 μM compound a): 17%
